Article PMC8016998, “Identification of potential therapeutic antimicrobial peptides against Acinetobacter baumannii in a mouse model of pneumonia” (Scientific Reports, 2021)
No end group written: not given here.

System: MDRAB clinical strain AF93
Format: cell-based, Acinetobacter baumannii
Conditions: 24 h
Method: (§1) MBC were determined by extending the MIC procedure in sterilized 96-well polypropylene microtiter plates according to the broth microdilution guidelines of the Clinical and Laboratory Standards Institute with some modification[47]. […] In addition, 10 µL was drawn from each well with no visible turbidity onto LB agar plates and incubated for 24 h at 37 °C. The lowest concentration showing no visible growth on agar subculture was used as the MBC value. All experiments were performed in triplicate.

| MIC [µg/mL] | Sequence | MBC [µg/mL] |
| --- | --- | --- |
| 16 | GAKYAKIIYNYLKKIANALW [GW-A2] | 16 |
| 8 | GIKIAKKAITIAKKIAKIYW [GW-Q6] | 16 |

System: MDRAB clinical strain U95
Format: cell-based, Acinetobacter baumannii
Conditions: 24 h
Method: as §1

| MIC [µg/mL] | Sequence | MBC [µg/mL] |
| --- | --- | --- |
| 32 | GAKYAKIIYNYLKKIANALW [GW-A2] | 64 |
| 16 | GIKIAKKAITIAKKIAKIYW [GW-Q6] | 32 |

System: Acinetobacter baumannii 19,606
Format: cell-based
Conditions: 19,606, 24 h
Method: as §1

| MIC [µg/mL] | Sequence | MBC [µg/mL] |
| --- | --- | --- |
| 8 | GAKYAKIIYNYLKKIANALW [GW-A2] | 8 |
| 16 | GIKIAKKAITIAKKIAKIYW [GW-Q6] | 16 |

System: MDRAB clinical strain L87
Format: cell-based, Acinetobacter baumannii
Conditions: 24 h
Method: as §1

| MIC [µg/mL] | Sequence | MBC [µg/mL] |
| --- | --- | --- |
| 16 | GAKYAKIIYNYLKKIANALW [GW-A2] | 16 |
| 16 | GIKIAKKAITIAKKIAKIYW [GW-Q6] | 16 |

System: MDRAB clinical strain AF11
Format: cell-based, Acinetobacter baumannii
Conditions: 24 h
Method: as §1

| MIC [µg/mL] | Sequence | MBC [µg/mL] |
| --- | --- | --- |
| 16 | GAKYAKIIYNYLKKIANALW [GW-A2] | 32 |
| 8 | GIKIAKKAITIAKKIAKIYW [GW-Q6] | 8 |

System: MDRAB clinical strain AS40
Format: cell-based, Acinetobacter baumannii
Conditions: 24 h

| MIC [µg/mL] | Sequence | MBC [µg/mL] |
| --- | --- | --- |
| 8 | GAKYAKIIYNYLKKIANALW [GW-A2] | 16 |
| 16 | GIKIAKKAITIAKKIAKIYW [GW-Q6] | 16 |

System: MDRAB clinical strain W11
Format: cell-based, Acinetobacter baumannii
Conditions: 24 h
Method: as §1

| MIC [µg/mL] | Sequence | MBC [µg/mL] |
| --- | --- | --- |
| 16 | GAKYAKIIYNYLKKIANALW [GW-A2] | 16 |
| 16 | GIKIAKKAITIAKKIAKIYW [GW-Q6] | 16 |

System: MDRAB clinical strain J49
Format: cell-based, Acinetobacter baumannii
Conditions: 24 h

| MIC [µg/mL] | Sequence | MBC [µg/mL] |
| --- | --- | --- |
| 16 | GAKYAKIIYNYLKKIANALW [GW-A2] | 16 |
| 16 | GIKIAKKAITIAKKIAKIYW [GW-Q6] | 16 |

System: MDRAB clinical strain AL87
Format: cell-based, Acinetobacter baumannii
Conditions: 24 h
Method: as §1

| MIC [µg/mL] | Sequence | MBC [µg/mL] |
| --- | --- | --- |
| 8 | GAKYAKIIYNYLKKIANALW [GW-A2] | 8 |
| 8 | GIKIAKKAITIAKKIAKIYW [GW-Q6] | 8 |

System: MDRAB clinical strain AF12
Format: cell-based, Acinetobacter baumannii
Conditions: 24 h
Method: as §1

| MIC [µg/mL] | Sequence | MBC [µg/mL] |
| --- | --- | --- |
| 8 | GAKYAKIIYNYLKKIANALW [GW-A2] | 8 |
| 8 | GIKIAKKAITIAKKIAKIYW [GW-Q6] | 8 |

System: MDRAB clinical strain AK61
Format: cell-based, Acinetobacter baumannii
Conditions: 24 h
Method: as §1

| MIC [µg/mL] | Sequence | MBC [µg/mL] |
| --- | --- | --- |
| 8 | GAKYAKIIYNYLKKIANALW [GW-A2] | 8 |
| 16 | GIKIAKKAITIAKKIAKIYW [GW-Q6] | 16 |

System: MDRAB clinical strain AG51
Format: cell-based, Acinetobacter baumannii
Conditions: 24 h

| MIC [µg/mL] | Sequence | MBC [µg/mL] |
| --- | --- | --- |
| 8 | GAKYAKIIYNYLKKIANALW [GW-A2] | 8 |
| 8 | GIKIAKKAITIAKKIAKIYW [GW-Q6] | 8 |

System: MDRAB clinical strain K2
Format: cell-based, Acinetobacter baumannii
Conditions: 24 h

| MIC [µg/mL] | Sequence | MBC [µg/mL] |
| --- | --- | --- |
| 32 | GAKYAKIIYNYLKKIANALW [GW-A2] | 64 |
| 8 | GIKIAKKAITIAKKIAKIYW [GW-Q6] | 8 |

System: MDRAB clinical strains
Format: cell-based, Acinetobacter baumannii
Conditions: 24 h

| MIC [µg/mL] | Sequence | MBC [µg/mL] |
| --- | --- | --- |
| 8 to 32 | GAKYAKIIYNYLKKIANALW [GW-A2] | 8 to 64 |
| 8 to 16 | GIKIAKKAITIAKKIAKIYW [GW-Q6] | 8 to 32 |

System: MDRAB clinical strain Y92
Format: cell-based, Acinetobacter baumannii
Conditions: 24 h
Method: as §1

| MIC [µg/mL] | Sequence | MBC [µg/mL] |
| --- | --- | --- |
| 16 | GAKYAKIIYNYLKKIANALW [GW-A2] | 16 |
| 8 | GIKIAKKAITIAKKIAKIYW [GW-Q6] | 8 |

System: MDRAB clinical strain AK29
Format: cell-based, Acinetobacter baumannii
Conditions: 24 h

| MIC [µg/mL] | Sequence | MBC [µg/mL] |
| --- | --- | --- |
| 8 | GAKYAKIIYNYLKKIANALW [GW-A2] | 8 |
| 8 | GIKIAKKAITIAKKIAKIYW [GW-Q6] | 8 |

System: MDRAB clinical strain U80
Format: cell-based, Acinetobacter baumannii
Conditions: 24 h
Method: as §1

| MIC [µg/mL] | Sequence | MBC [µg/mL] |
| --- | --- | --- |
| 16 | GAKYAKIIYNYLKKIANALW [GW-A2] | 16 |
| 16 | GIKIAKKAITIAKKIAKIYW [GW-Q6] | 16 |

System: MDRAB clinical strain AO80
Format: cell-based, Acinetobacter baumannii
Conditions: 24 h
Method: as §1

| MIC [µg/mL] | Sequence | MBC [µg/mL] |
| --- | --- | --- |
| 8 | GAKYAKIIYNYLKKIANALW [GW-A2] | 16 |
| 16 | GIKIAKKAITIAKKIAKIYW [GW-Q6] | 16 |

System: MDRAB clinical strain AE6
Format: cell-based, Acinetobacter baumannii
Conditions: 24 h
Method: as §1

| MIC [µg/mL] | Sequence | MBC [µg/mL] |
| --- | --- | --- |
| 16 | GAKYAKIIYNYLKKIANALW [GW-A2] | 32 |
| 8 | GIKIAKKAITIAKKIAKIYW [GW-Q6] | 8 |

System: MDRAB clinical strain AN10
Format: cell-based, Acinetobacter baumannii
Conditions: 24 h

| MIC [µg/mL] | Sequence | MBC [µg/mL] |
| --- | --- | --- |
| 8 | GAKYAKIIYNYLKKIANALW [GW-A2] | 8 |
| 8 | GIKIAKKAITIAKKIAKIYW [GW-Q6] | 8 |

System: MDRAB clinical strain D29
Format: cell-based, Acinetobacter baumannii
Conditions: 24 h
Method: as §1

| MIC [µg/mL] | Sequence | MBC [µg/mL] |
| --- | --- | --- |
| 16 | GAKYAKIIYNYLKKIANALW [GW-A2] | 16 |
| 16 | GIKIAKKAITIAKKIAKIYW [GW-Q6] | 32 |

System: MDRAB clinical strain AZ93
Format: cell-based, Acinetobacter baumannii
Conditions: 24 h
Method: as §1

| MIC [µg/mL] | Sequence | MBC [µg/mL] |
| --- | --- | --- |
| 8 | GAKYAKIIYNYLKKIANALW [GW-A2] | 16 |
| 8 | GIKIAKKAITIAKKIAKIYW [GW-Q6] | 8 |

System: MDRAB clinical strain O59
Format: cell-based, Acinetobacter baumannii
Conditions: 24 h
Method: as §1

| MIC [µg/mL] | Sequence | MBC [µg/mL] |
| --- | --- | --- |
| 32 | GAKYAKIIYNYLKKIANALW [GW-A2] | 32 |
| 16 | GIKIAKKAITIAKKIAKIYW [GW-Q6] | 32 |

System: MDRAB clinical strain AE5
Format: cell-based, Acinetobacter baumannii
Conditions: 24 h
Method: as §1

| MIC [µg/mL] | Sequence | MBC [µg/mL] |
| --- | --- | --- |
| 16 | GAKYAKIIYNYLKKIANALW [GW-A2] | 16 |
| 8 | GIKIAKKAITIAKKIAKIYW [GW-Q6] | 8 |

System: Acinetobacter baumannii 17,978;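 further: CLSI broth microdilution in 96-well polypropylene plates, MBC taken as lowest concentration giving no growth when clear wells were subcultured on LB agar for 24 h at 37 °C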
Format: cell-based
Conditions: 17,978, 24 h

| MIC [µg/mL] | Sequence | MBC [µg/mL] |
| --- | --- | --- |
| 32 | GAKYAKIIYNYLKKIANALW [GW-A2] | 32 |
| 16 | GIKIAKKAITIAKKIAKIYW [GW-Q6] | 16 |
